Measured values reported in patent publication US12679850B2, “TYK2 inhibitors and uses thereof” (Alumis Inc., priority 2020, dated 2026).

Tests used:
[1] = biological target: T1, human TYK2 (JH2domain-pseudokinase) (Homo sapiens, UniProt P29597); test: TYK2 JH2 domain binding assay (KINOMEscan); details: 11-point 3-fold dilution, top concentration 30,000 nM, duplicate
T1 construct: host or cells: transiently transfected HEK293 cells; unpurified extract used
Procedure: Binding constants for the compounds described herein against the JH2 domain were determined by the following protocol for a KINOMEscan® assay (DiscoveRx). A fusion protein of a partial length construct of human TYK2 (JH2domain-pseudokinase) (amino acids G556 to D888 based on reference sequence NP_003322.3) and the DNA binding domain of NFkB is expressed in transiently transfected HEK293 cells. From these HEK 293 cells, extracts are prepared in M-PER extraction buffer (Pierce) in the presence of Protease Inhibitor Cocktail Complete (Roche) and Phosphatase Inhibitor Cocktail Set II (Merck) per manufacturers' instructions. The TYK2 (JH2domain-pseudokinase) fusion protein is labeled with a chimeric double-stranded DNA tag containing the NFkB binding site fused to an amplicon for qPCR readout, which is added directly to the expression extract (the final concentration of DNA-tag in the binding reaction is 0.1 nM). […]
The binding reaction is assembled by combining 16 μl of DNA-tagged kinase extract, 3.8 μl liganded affinity beads, and 0.18 μl test compound (PBS/0.05% Tween 20/10 mM DTT/0.1% BSA/2 μg/ml sonicated salmon sperm DNA)]. […] Kds were determined using an 11-point 3-fold compound dilution series with three DMSO control points. […]
Test compounds are prepared as 111× stocks in 100% DMSO. Kds were determined using an 11-point 3-fold compound dilution series with three DMSO control points. […]

[2] = system: pSTAT5 in Human PBMC; test: INFα induced pSTAT5 in human PBMC; assay type: cell-based; details: fresh human PBMC, compound 1 hour, INFα 5000 units/ml for 15 minutes, MSD Phospho STAT5 kit; read-out: p-STAT5 IC50
Procedure: Fresh Human PBMCs were resuspended in RPMI 1640 medium with 10% FBS. Cells were seeded in a round bottom 96-well plate at the concentration of 200,000 cells/well. A 10-point dilution series of test compound (top dose 10 uM, 1:5 dilution) was added to the well using the liquid dispenser (Tecan D300e) and incubated for 1 hour at 37 C. Then human INFα recombinant protein (R&D Systems) was added to the well at the final concentration of 5000 units/ml and incubated for 15 minutes at 37 C. Cell lysates were prepared and analyzed by Phospho STAT5 (Tyr693) Kit (Meso Scale Discovery) following manufacturer's protocol.
For calculation of the inhibition rate, the relative pSTAT5 signal of each well=pSTAT5 signal of each well−the average pSTAT5 signal of baseline.
The inhibition %=(the average pSTAT5 signal of INFα treatment wells−the relative of pSTAT5 signal in each compound containing well)/the average pSTAT5 signal of INFα treatment wells*100%
The curve was plotted as the inhibition % (y-axis) vs. compounds concentration (x-axis) and was fitted with log(inhibitor) vs. normalized response—Variable slope by GraphPad Prism7.0.

T1 sequence (P29597 556-888): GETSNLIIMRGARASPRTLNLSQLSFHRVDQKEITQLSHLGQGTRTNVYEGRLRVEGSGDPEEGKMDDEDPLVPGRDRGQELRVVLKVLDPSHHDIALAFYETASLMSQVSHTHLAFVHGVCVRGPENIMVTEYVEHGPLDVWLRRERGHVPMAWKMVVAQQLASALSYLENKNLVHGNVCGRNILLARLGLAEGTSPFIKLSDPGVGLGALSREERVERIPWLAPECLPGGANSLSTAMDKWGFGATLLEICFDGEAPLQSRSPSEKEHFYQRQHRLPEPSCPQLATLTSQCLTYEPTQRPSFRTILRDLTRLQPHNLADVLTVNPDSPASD

Kd [1]: 0.0022 nM
Structure (SMILES): [2H]C([2H])([2H])n1nnc2c3cc(cc21)CO[C@@H]1CCC[C@H]1NC(=O)c1cnc2c(NC)cc(nn12)N3 [Example 1]
IC50 [2]: 1.7 nM
